“Also recorded” adds a separate entry of the source. Read-outs that look alike come from different tables or passages of the source.
Columns and labels:
CD8^+ T cell response = settings: mixture of peptides intradermally, patients bearing NY-ESO^+ tumors; cited from earlier work
Serum stability assay = assay type: in vitro ADME, mouse; settings: for remaining at 2 h, 0.091 mg/ml: male
Method: 10 μL of an aqueous peptide solution containing 1 mg/ml peptide was added to 100 μl of 20% mouse serum (From adult male BL6 mice), and incubated at 37° C. for 0 min, 2 hrs and 12 hrs. At each time point samples were taken and serum proteins removed by precipitation through the addition of 40 μl of 15% TCA. Samples were stored at 4° C. for 30 min and centrifuged. Supernatants were then removed and kept on ice. 50 μl of each supernatant was analysed by RP-HPLC using 0.1% TFA in water (eluent A) and 0.09% TFA in 60% aqueous acetonitrile (eluent B) and the following gradient.
The column was a Pharmacia μRPC octadecyl silica column of […] nominal particle size and 300 Å pore size. The flow rate was 200 μl/min and UV detection was used at 214 nm, 254 nm and 280 nm. Values are given as area of peptide peak (214 nm). Peptide amounts at T=0 min were used as 100%. Peptide digests were fractionated and Electrospray ionisation (ESI) Ion Trap Mass spectrometry was used to characterise the fragmentation pattern of SIINFEKL and selected β-amino acid analogues.
Since β-amino acids are resistant to proteolysis, the influence of peptide modification on stability against proteolysis was tested by monitoring the degradation of the peptides in mouse blood serum. Degradation kinetics were followed by reverse phase-HPLC (RP-HPLC) analysis using corresponding peak area for peptide quantification. The parental SIINFEKL peptide was degraded rapidly, with only 5% of the peptide being recovered after 2 hrs. For the βC3-analogues, the amount of degradation was highly dependent on the position of the substitution. Limited stabilisation occurred for peptides with substitutions at P3 and P4 with 8% and 7% recovery respectively (FIG. 11). For the substitution at P1, 10% of the initial peak was recovered. […] For β-Phe at P5 and β-Leu at P8 over 25% of the initial peak was recovered after 2 hrs.

[1] = 20% mouse serum (From adult male BL6 mice); settings: 37° C., up to 12 hrs
[2] = system: SIINFEKL/K^b-restricted CD8^+ CTL clones; assay: T-hybrid CTL recognition assay (IL-2 bioassay), panel of clones; assay type: cell-based, mouse; settings: 1 μM peptide pulsed on I-3 cells
Text: (§1) The SIINFEKL/K^b-restricted CD8^+ CTL clones B3.1, GA4.2 (Nikolic-Zugic, J., and Carbone F. R. (1990). The effect of mutations in the MHC Class I peptide binding groove on the cytotoxic T lymphocyte recognition of the Kb restricted ovalbumin determinant. Eur. J. Immunol. 20:2431), 149.13.13, 149.42.12 (Clark S. R., Barnden M., Kurts C., Carbone F. R., Miller J. F., Heath J. R. Characterization of the ovalbumin-specific TCR transgenic line OT-I: MHC elements for positive and negative selection. Immunol Cell Biol. April 2000;78(2): 110-7), and the herpes simplex viral specific clone HSV2.3 (Wallace, M. E., Keating, R., Heath, W R., Carbone, F. R. 1999. […]
(§2) CTLL-2 cells were grown to ˜5×10^5 cell per ml then washed 3 times in media containing no exogenous IL-2. […] Once dry, scintillation fluid (Packard Biosciences, Melbourne) was added, then counted on a TopCount scintillation counter (Packard Biosciences, Melbourne).
(§3) CTL clones (expressing different TCR Vβ/Vα segments) restricted by the H2-K^b molecule, and specific to the SIINFEKL peptide were tested for their ability to recognise the various βC3-amino acid substituted analogues (Table X). […] CTTL-2 proliferation is then measured by 3H-Thymydine incorporation and counted on a scintillation counter.

CTL clone HSV2.3 = assay: T-hybrid CTL recognition assay (IL-2 bioassay), control clone HSV2.3; assay type: cell-based, mouse
Text: as §1, §2, §3

HLA-A2 = HLA-A2 (Homo sapiens, UniProt P04439, D140Y/D185E/D98H/E176V/E277Q/G131W/G231S/I119V/I121R/I166T/I218V/L300P/L318F/N151K/N90K/P208A/P217A/Q86G/Q94H/R138H/R169H/T345S); settings: cited from earlier work
[3] = construct that expresses an ER-targeted ESO157-167
[4] = molecular target: H2-K^b complex with Peptide 2 (βC3-Ser at P1) on cells (mouse); assay: RMA-S stabilisation assay with 25-D1.16, flow cytometry
[5] = molecular target: H2-K^b complex with Peptide 4 (βC3-Ile at P3) on cells (mouse); assay: as above
[6] = molecular target: MHC Class I H2-K^b on cells (mouse); assay: flow cytometry on RMA-S cells, with against without exogenous peptide
[7] = BL6, 20% mouse serum, 37° C., RP-HPLC peak area 214 nm, read-out: peptide recovered after 2 hrs

In the case of “SLLMWITQCFL [ESO157-167, NY-ESO 157-167 HLA-A*0201-restricted determinant]”, the “CD8^+ T cell response after peptide vaccination” value (CD8^+ T cell response) is given as “vigorous”.

With `CC[C@H](C)[C@H](NC(=O)[C@@H](NC(=O)[C@@H](N)CO)[C@@H](C)CC)C(=O)N[C@@H](CC(N)=O)C(=O)NC(CC(=O)N[C@@H](CCC(=O)O)C(=O)N[C@@H](CCCCN)C(=O)N[C@@H](CC(C)C)C(=O)O)Cc1ccccc1` (stereo partly drawn) [Peptide 6, SIINβFEKL] the “full peptide at t=12 hrs” value (Serum stability assay) was “disappeared”, the “serum cleavage sites (MS of fragments)” value (Serum stability assay) was “cleavage did not occur after the P5 amino acid” and the remaining at 2 h, 0.091 mg/ml (Serum stability assay; BL6, mouse, serum) was > 25%.

For Ser Ile Ile Asn β^c3Phe Glu Lys Leu, the not cleaved [1] was “At t=12 hrs the full peptide has disappeared leaving only fragments”.

For “SSIEFARL [peptide recognised by the Herpes Simplex Virus specific control clone HSV2.3]”, the “CTL recognition by the clones” value [2] was “not recognised” and the “recognition by control clone HSV2.3” value (CTL clone HSV2.3) was “mainly mediated”.

With `CC[C@H](C)[C@H](NC(=O)[C@@H](NC(=O)[C@@H](N)CO)[C@@H](C)CC)C(=O)N[C@@H](CC(N)=O)C(=O)N[C@@H](Cc1ccccc1)C(=O)N[C@@H](CCC(=O)O)C(=O)N[C@@H](CCCCN)C(=O)N[C@@H](CC(C)C)C(=O)O` [Peptide 1, SIINFEKL, reference compound] the remaining at 2 h, 0.091 mg/ml (Serum stability assay; [7]) was 5% and the “serum cleavage sites (MS of fragments)” value (Serum stability assay; mouse serum) was “S*I*I*NF*E*KL”.

`CC[C@H](C)[C@H](NC(=O)CC(N)CO)C(=O)N[C@H](C(=O)N[C@@H](CC(N)=O)C(=O)N[C@@H](Cc1ccccc1)C(=O)N[C@@H](CCC(=O)O)C(=O)N[C@@H](CCCCN)C(=O)N[C@@H](CC(C)C)C(=O)O)[C@@H](C)CC` (stereo partly drawn) [Peptide 2] showed a remaining at 2 h, 0.091 mg/ml (Serum stability assay; [7]) of 10%.

For SIINFEKL, the cleaved bond [1] was “S-I, 2 hrs; also recorded: I-N, 2 hrs; also recorded: F-E, 2 hrs; also recorded: E-K, 2 hrs”.

For `CC[C@H](C)[C@H](NC(=O)[C@@H](NC(=O)[C@@H](N)CO)[C@@H](C)CC)C(=O)NC(CC(N)=O)CC(=O)N[C@@H](Cc1ccccc1)C(=O)N[C@@H](CCC(=O)O)C(=O)N[C@@H](CCCCN)C(=O)N[C@@H](CC(C)C)C(=O)O` (stereo partly drawn) [Peptide 5], the remaining at 2 h, 0.091 mg/ml (Serum stability assay; BL6, mouse, serum) was 7%.

For SLLMWITQC [ESO157-165], the “CD8^+ T cell response after peptide vaccination” value (CD8^+ T cell response) is given as “later and at a lower level” and the “binding to HLA-A2” value (HLA-A2) is given as “poor binding”.

For SLLMWITQCFL, the fragment found [3] was “ESO157-165; also recorded: ESO159-167”.

For `CCC(C)C(CC(=O)N[C@H](C(=O)N[C@@H](CC(N)=O)C(=O)N[C@@H](Cc1ccccc1)C(=O)N[C@@H](CCC(=O)O)C(=O)N[C@@H](CCCCN)C(=O)N[C@@H](CC(C)C)C(=O)O)[C@@H](C)CC)NC(=O)[C@@H](N)CO` (stereo partly drawn) [Peptide 3], the “resistance to proteolytic degradation” value (Serum stability assay) was “significant resistance”.

For `CCC(C)C(CC(=O)N[C@@H](CC(N)=O)C(=O)N[C@@H](Cc1ccccc1)C(=O)N[C@@H](CCC(=O)O)C(=O)N[C@@H](CCCCN)C(=O)N[C@@H](CC(C)C)C(=O)O)NC(=O)[C@@H](NC(=O)[C@@H](N)CO)[C@@H](C)CC` (stereo partly drawn) [Peptide 4], the “serum cleavage sites (MS of fragments)” value (Serum stability assay) was “no cleavage at the P2-P3 bond” and the remaining at 2 h, 0.091 mg/ml (Serum stability assay; BL6, mouse, serum) was 8%.

With `CC[C@H](C)[C@H](NC(=O)[C@@H](NC(=O)[C@@H](N)CO)[C@@H](C)CC)C(=O)N[C@@H](CC(N)=O)C(=O)N[C@@H](Cc1ccccc1)C(=O)N[C@@H](CCC(=O)O)C(=O)N[C@@H](CCCCN)C(=O)NC(CC(=O)O)CC(C)C` (stereo partly drawn) [Peptide 8, SIINFEKβL] the remaining at 2 h, 0.091 mg/ml (Serum stability assay; [7]) was > 25% and the “resistance to proteolytic degradation” value (Serum stability assay; mouse serum, 2 hrs, listed as P8) was “significant resistance; also recorded: most stable”.

monoclonal antibody 25-D1.16 showed a fold increase in peptide concentration to reach the same level of recognition as SIINFEKL [4] of 100 fold and a fold increase in peptide concentration to reach the same level of recognition as SIINFEKL [5] of 100 fold.

With Ser Ile β^c3Ile Asn Phe Glu Lys Leu the not cleaved [1] was “At t=2 hrs most of the full peptide has disappeared”.

Work on H2-K^b specific monoclonal antibody Y-3 yielded a fold increase in surface K^b staining with exogenous peptide [6] of 50 fold.
